Read-outs that look alike come from different tables or passages of the source.
Legend:
cyclin B/CDK1 enzyme = molecular target: T1, cyclin B/CDK1 enzyme (Homo sapiens, UniProt P06493); assay: CDK1 ELISA kinase assay (phospho-Rb ser 795 detection); format: biochemical
T1 construct: purchased New England BioLabs; host or cells: Sf9 insect cells, recombinant baculovirus
In short: (§1)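 Sf9-derived cyclin/CDK, 200 μM ATP, immobilized GST-Rb; 30° C/1 h. Detection: phospho-Ser795 Ab, HRP, TMB, OD450.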

cyclin D1/cdk 4 enzyme = molecular target: T2, cyclin D1/cdk 4 enzyme (Homo sapiens, UniProt P11802); assay: CDK4 ELISA kinase assay (phospho-Rb ser 795 detection); format: biochemical
T2 construct: made in house; host or cells: Sf9 insect cells, recombinant baculovirus
T2 sequence (P11802 whole entry, species assumed): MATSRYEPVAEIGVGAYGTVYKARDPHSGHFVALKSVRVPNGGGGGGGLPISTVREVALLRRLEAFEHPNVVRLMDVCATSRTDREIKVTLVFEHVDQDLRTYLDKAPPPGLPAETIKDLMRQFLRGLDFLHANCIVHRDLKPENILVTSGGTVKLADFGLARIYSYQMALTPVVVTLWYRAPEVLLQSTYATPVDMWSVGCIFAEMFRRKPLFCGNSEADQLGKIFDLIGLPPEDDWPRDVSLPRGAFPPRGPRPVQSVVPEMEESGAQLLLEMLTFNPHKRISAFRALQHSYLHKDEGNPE
T2 sequence (P24385 whole entry partner, species assumed): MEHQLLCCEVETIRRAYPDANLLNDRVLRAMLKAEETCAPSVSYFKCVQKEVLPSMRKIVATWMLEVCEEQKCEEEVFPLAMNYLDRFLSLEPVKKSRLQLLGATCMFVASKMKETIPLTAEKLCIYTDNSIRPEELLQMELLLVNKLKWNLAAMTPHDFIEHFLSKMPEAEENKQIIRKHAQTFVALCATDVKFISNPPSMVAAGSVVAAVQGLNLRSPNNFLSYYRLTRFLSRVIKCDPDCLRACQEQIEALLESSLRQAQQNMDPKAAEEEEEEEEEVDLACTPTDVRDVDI
In short: as §1

BT474 = assay: Cytotoxicity assay (SRB), BT474; format: cell-based
In short: (§2)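 Growth inhibition, SRB method: 3-day continuous compound exposure for HCT-116, LoVo and MCF-7 and 6-day exposure for BT474. Absorbance at 540 nm reflects surviving cell protein relative to controls.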

LoVo = assay: Cytotoxicity assay (SRB), LoVo; format: cell-based; settings: LoVo cells, SRB, read-out: In Vitro Cellular Activity IC50 LOVO
In short: as §2

HCT-116 = assay: Cytotoxicity assay (SRB), HCT-116; format: cell-based; settings: HCT116 cells, SRB, read-out: In Vitro Cellular Activity IC50 HCT116
In short: as §2

cyclin E/CDK2 enzyme = molecular target: T3, cyclin E/CDK2 enzyme (Homo sapiens, UniProt P24941); assay: CDK2 ELISA kinase assay (phospho-Rb ser 795 detection); format: biochemical
T3 construct: made in house; host or cells: Sf9 insect cells, recombinant baculovirus
In short: as §1

MCF-7 = assay: Cytotoxicity assay (SRB), MCF-7; format: cell-based; settings: MCF-7 cells, SRB, read-out: In Vitro Cellular Activity IC50 MCF-7
In short: as §2

[1] = In Vitro Enzyme Assay, cyclin B/CDK1, read-out: CDK1 IC50
[2] = In Vitro Enzyme Assay, cyclin D1/cdk 4, read-out: CDK4 IC50
[3] = Homo sapiens, BT-474, 144 h, BT474 cells, 6 days, SRB; read-out: In Vitro Cellular Activity IC50 BT474
[4] = Homo sapiens, LoVo, 72 h, 3 days
[5] = Homo sapiens, HCT-116, 72 h, 3 days
[6] = In Vitro Enzyme Assay, cyclin E/CDK2, read-out: CDK2 IC50
[7] = Homo sapiens, MCF7, 72 h, 3 days
[8] = In Vitro Enzyme Assay, read-out: CDK1 IC50
[9] = In Vitro Enzyme Assay, read-out: CDK4 IC50
[10] = In Vitro Enzyme Assay, read-out: CDK2 IC50
[11] = In Vitro Enzyme Assays, read-out: CDK1 IC50
[12] = In Vitro Enzyme Assays, 200 μM ATP, read-out: CDK4 IC50
[13] = In Vitro Enzyme Assays, read-out: CDK2 IC50

T1 sequence (P06493 whole entry): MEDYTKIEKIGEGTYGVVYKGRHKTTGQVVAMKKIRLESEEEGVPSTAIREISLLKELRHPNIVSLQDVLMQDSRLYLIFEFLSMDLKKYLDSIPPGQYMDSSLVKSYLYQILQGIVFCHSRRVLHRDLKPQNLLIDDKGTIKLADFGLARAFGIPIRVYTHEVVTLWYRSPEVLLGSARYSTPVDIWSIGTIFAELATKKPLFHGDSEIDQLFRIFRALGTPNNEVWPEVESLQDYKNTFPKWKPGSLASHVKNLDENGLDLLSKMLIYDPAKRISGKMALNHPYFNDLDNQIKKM
T1 sequence (P14635 whole entry partner): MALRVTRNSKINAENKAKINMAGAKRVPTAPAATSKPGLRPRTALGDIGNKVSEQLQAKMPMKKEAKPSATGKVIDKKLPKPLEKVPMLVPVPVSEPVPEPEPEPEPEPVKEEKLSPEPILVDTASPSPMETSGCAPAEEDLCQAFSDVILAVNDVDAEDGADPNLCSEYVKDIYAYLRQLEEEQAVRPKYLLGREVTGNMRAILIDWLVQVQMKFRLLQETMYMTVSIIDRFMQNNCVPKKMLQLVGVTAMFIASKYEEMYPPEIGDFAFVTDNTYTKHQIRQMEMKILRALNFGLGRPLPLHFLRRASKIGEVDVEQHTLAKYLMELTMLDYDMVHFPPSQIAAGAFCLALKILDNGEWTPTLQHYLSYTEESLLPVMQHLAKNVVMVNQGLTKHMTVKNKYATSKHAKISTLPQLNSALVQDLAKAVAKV

Row | Molecule | IC50 (cyclin B/CDK1 enzyme; [1]) | IC50 (cyclin D1/cdk 4 enzyme; [2]) | IC50 (BT474; [3]) | IC50 (LoVo; [4]) | IC50 (HCT-116; [5]) | IC50 (cyclin E/CDK2 enzyme; [6]) | IC50 (MCF-7; [7]) | IC50 (cyclin B/CDK1 enzyme; [8]) | IC50 (cyclin D1/cdk 4 enzyme; [9]) | IC50 (cyclin E/CDK2 enzyme; [10]) | also measured
1 | O=C1NCc2cc(Br)ccc2C1=CNc1ccc(CN2CCCC2)cc1 [Example 847, 7-Bromo-4-[(4-pyrrolidin-1-ylmethyl-phenylamino)-methylene]-1,4-dihydro-2H-isoquinolin-3-one] | > 50 µM | 5 µM | 8.1 µM | 4.9 µM | 4.3 µM | > 50 µM | 6 µM |  |  |  | 
2 | CN1CCN(c2ccc(NC=C3C(=O)NCc4cc(-c5cccs5)ccc43)cc2)CC1 [Example 848, 4-{[4-(4-Methyl-piperazin-1-yl)-phenylamino]-methylene}-7-thiophen-2-yl-1,4-dihydro-2H-isoquinolin-3-one] | 44.4 µM | > 50 µM | 13.8 µM | 13.3 µM | 7.1 µM | > 50 µM | 10.9 µM |  |  |  | 
3 | COc1ccc(NC=C2C(=O)NCc3cc(-c4ccc[nH]4)ccc32)cc1 [Example 849, 4-[(4-Methoxy-phenylamino)-methylene]-7-(1H-pyrrol-2-yl)-1,4-dihydro-2H-isoquinolin-3-one] | > 50 µM | > 50 µM | 6.8 µM | 15.9 µM | 12.8 µM | 40.6 µM | 4.3 µM |  |  |  | 
4 | COc1ccc(NC=C2C(=O)NCc3cc(-c4cc[nH]c4)ccc32)cc1 [Example 850, 4-[(4-Methoxy-phenylamino)-methylene]-7-(1H-pyrrol-3-yl)-1,4-dihydro-2H-isoquinolin-3-one] | > 50 µM | > 50 µM | 46.5 µM | 24.2 µM | 16 µM | 19.7 µM | > 50 µM |  |  |  | 
5 | CCN(CC)CCn1ccc2cc(-c3ccc4c(c3)C(=CNc3ccc(N5CCN(C)CC5)cc3)C(=O)NC4=O)ccc21 [Example 852, 6-[1-(2-Diethylamino-ethyl)-1H-indol-5-yl]-4-{[4-(4-methyl-piperazin-1-yl)-phenylamino]-methylene}-4H-isoquinoline-1,3-dione] | > 50 µM | 0.31 µM | > 50 µM | > 50 µM | > 50 µM | > 50 µM | 46.3 µM |  |  |  | 
6 | CN1CCN(c2ccc(NC=C3C(=O)NC(=O)c4ccc(-c5ccn(CCCC#N)c5)cc43)cc2)CC1 [Example 855, 4-[3-(4-{[4-(4-Methyl-piperazin-1-yl)-phenylamino]-methylene}-1,3-dioxo-1,2,3,4-tetrahydro-isoquinolin-6-yl)-pyrrol-1-yl]-butyronitrile] | > 50 µM | 0.31 µM | 43.3 µM | > 50 µM | > 50 µM | > 50 µM | 42.6 µM |  |  |  | 
7 | N=C(N)c1ccc(NC=C2C(=O)NCc3cc(Br)ccc32)cc1 [Example 861, 4-[(7-Bromo-3-oxo-2,3-dihydro-1H-isoquinolin-4-ylidenemethyl)-amino]-benzamidine] | > 50 µM | 14.3 µM | 45.4 µM | > 50 µM | > 50 µM | 3.6 µM | > 50 µM |  |  |  | 
8 | O=C1NCc2cc(Br)ccc2C1=CNc1ccc(CCO)cc1 [Example 863, 7-Bromo-4-{[4-(2-hydroxy-ethyl)-phenylamino]-methylene}-1,4-dihydro-2H-isoquinolin-3-one] | 37.1 µM | 20.1 µM | 31.1 µM | 10.2 µM | 11.2 µM | 18 µM | 16.3 µM |  |  |  | 
9 | CN(CCN1CCCC1)c1ccc(N/C=C2\C(=O)NC(=O)c3ccc(Br)cc32)cc1 [Example 864, (4Z)-6-Bromo-4-[({4-[methyl(2-pyrrolidin-1-ylethyl)amino]phenyl}amino)methylene]isoquinoline-1,3(2H,4H)-dione] | > 50 µM | 2.5 µM | 7.9 µM | 3.8 µM | 3.1 µM | > 50 µM | 3.6 µM |  |  |  | 
10 | CN(CCN1CCCCC1)c1ccc(N/C=C2\C(=O)NC(=O)c3ccc(Br)cc32)cc1 [Example 865, (4Z)-6-bromo-4-[({4-[methyl(2-piperidin-1-ylethyl)amino]phenyl}amino)methylene]isoquinoline-1,3(2H,4H)-dione] |  |  | 7.5 µM | 3.6 µM | 3.1 µM |  | 5.3 µM | > 50 µM | 4.3 µM | > 50 µM | 
11 | CN(C)CCOc1ccc(N/C=C2\C(=O)NC(=O)c3ccc(Br)cc32)cc1 [Example 867, (4Z)-6-Bromo-4-[({4-[2-(dimethylamino)ethoxy]phenyl}amino)methylene]isoquinoline-1,3(2H,4H)-dione] |  |  | 8.3 µM | 5.3 µM | 3.5 µM |  | 6.7 µM | > 50 µM | 0.48 µM | > 50 µM | 
12 | CN1Cc2ccc(N/C=C3\C(=O)NC(=O)c4ccc(Br)cc43)cc2C1 [Example 868, (4Z)-6-Bromo-4-{[(2-methyl-2,3-dihydro-1H-isoindol-5-yl)amino]methylene}isoquinoline-1,3(2H,4H)-dione] |  |  | 6.8 µM | 3.9 µM | 2.5 µM |  | 5.5 µM | 20.7 µM | 1.2 µM | 2.5 µM | 
13 | O=C1NC(=O)c2ccc(Br)cc2/C1=C/Nc1ccc(-n2ccnc2)cc1 [Example 869, (4Z)-6-Bromo-4-({[4-(1H-imidazol-1-yl)phenyl]amino}methylene)isoquinoline-1,3(2H,4H)-dione] |  |  | > 50 µM | > 50 µM | 5.4 µM |  | > 50 µM | > 50 µM | 22.6 µM | 14.7 µM | 
14 | CC(=O)Oc1cc(CN/C=C2\C(=O)NC(=O)c3ccc(Br)cc32)cc2c1OC(C)(C)O2 [Example 872, 6-({[(Z)-(6-Bromo-1,3-dioxo-2,3-dihydroisoquinolin-4(1H)-ylidene)methyl]amino}methyl)-2,2-dimethyl-1,3-benzodioxol-4-yl acetate] |  |  | > 50 µM | 47.1 µM | 28.6 µM |  | 34.8 µM | 1.2 µM | 34.7 µM | 23.6 µM | 
15 | CC1(C)Oc2cc(CN/C=C3\C(=O)NC(=O)c4ccc(Br)cc43)cc(OC(=O)C3CC3)c2O1 [Example 873, 6-({[(Z)-(6-Bromo-1,3-dioxo-2,3-dihydroisoquinolin-4(1H)-ylidene)methyl]amino}methyl)-2,2-dimethyl-1,3-benzodioxol-4-yl cyclopropanecarboxylate] |  |  | 42.7 µM | 41.1 µM | 24.5 µM |  | 29.2 µM | 1.9 µM | > 50 µM | 24.7 µM | 
16 | CN(C)CCCc1ccc(N/C=C2\C(=O)NC(=O)c3ccc(Br)cc32)cc1 [Example 874, (4Z)-6-Bromo-4-[({4-[3-(dimethylamino)propyl]phenyl}amino)methylene]isoquinoline-1,3(2H,4H)-dione] |  |  | 27.4 µM | 23.7 µM | 12.6 µM |  | 7.2 µM | > 50 µM | 3 µM | 38.8 µM | 
17 | O=C1NC(=O)c2ccc(Br)cc2/C1=C/Nc1ccc(CN2CCC(O)CC2)cc1 [compound 75] |  |  |  |  |  |  |  |  |  |  | IC50 (cyclin B/CDK1 enzyme; [11]): > 50 µM; IC50 (cyclin D1/cdk 4 enzyme; [12]): 0.29 µM; IC50 (BT474; Homo sapiens, BT-474, 144 h, BT474 cells, SRB, 6 days; read-out: In Vitro Cellular Activity IC50 BT474): 9.7 µM; IC50 (LoVo; Homo sapiens, LoVo, 72 h, three days): 6 µM; IC50 (HCT-116; Homo sapiens, HCT-116, 72 h, three days): 5.8 µM; IC50 (cyclin E/CDK2 enzyme; [13]): 7.2 µM; IC50 (MCF-7; Homo sapiens, MCF7, 72 h, three days): 4.3 µM
18 | (4Z)-4-{[(3-Hydroxy-4-propoxybenzyl)amino]methylene}-6-thiene-3-ylisoquinoline-,3(2H,4H)-dione [Example 183] |  |  |  |  |  |  |  |  |  |  | IC50 (cyclin B/CDK1 enzyme; [11]): > 50 µM; IC50 (cyclin D1/cdk 4 enzyme; [12]): 0.11 µM; IC50 (BT474; BT474 cells, SRB, 6 days; read-out: In Vitro Cellular Activity IC50 BT474): 13 µM; IC50 (LoVo; three days): 12 µM; IC50 (HCT-116; three days): 8.4 µM; IC50 (cyclin E/CDK2 enzyme; [13]): > 50 µM; IC50 (MCF-7; three days): 8.8 µM

— patent publication US7713994B2 (Wyeth LLC, priority 2005, dated 2010)
